Columns and labels:
[1] = molecular target: Mitogen-activated protein kinase kinase kinase 9 (Homo sapiens) (UniProt P80192); conditions: Compound concentration 1000.0 nM
[2] = molecular target: Serine/threonine-protein kinase NIM1 (Homo sapiens) (UniProt Q8IY84); conditions: Compound concentration 1000.0 nM
[3] = molecular target: Serine/threonine-protein kinase Nek10 (Homo sapiens) (UniProt Q6ZWH5); conditions: Compound concentration 1000.0 nM
[4] = molecular target: Calcium/calmodulin-dependent protein kinase type II subunit gamma (Homo sapiens) (UniProt Q13555); conditions: Compound concentration 1000.0 nM
Chain of Calcium/calmodulin-dependent protein kinase type II subunit gamma (Homo sapiens) (Q13555 whole entry): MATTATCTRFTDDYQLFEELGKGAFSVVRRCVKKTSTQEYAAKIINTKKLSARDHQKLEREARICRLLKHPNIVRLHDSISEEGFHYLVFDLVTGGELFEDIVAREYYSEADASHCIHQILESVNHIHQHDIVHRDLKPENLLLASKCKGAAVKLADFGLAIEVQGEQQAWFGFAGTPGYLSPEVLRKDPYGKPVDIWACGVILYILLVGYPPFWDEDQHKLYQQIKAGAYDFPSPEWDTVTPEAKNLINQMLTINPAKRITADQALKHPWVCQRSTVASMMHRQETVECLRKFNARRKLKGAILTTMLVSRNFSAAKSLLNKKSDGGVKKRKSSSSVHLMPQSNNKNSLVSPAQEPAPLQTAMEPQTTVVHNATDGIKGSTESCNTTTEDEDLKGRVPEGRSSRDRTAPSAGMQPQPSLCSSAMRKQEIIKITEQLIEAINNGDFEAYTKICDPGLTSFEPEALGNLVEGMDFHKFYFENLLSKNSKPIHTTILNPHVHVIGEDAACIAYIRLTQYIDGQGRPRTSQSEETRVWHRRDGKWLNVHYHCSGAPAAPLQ

[5] = molecular target: SRSF protein kinase 2 (Homo sapiens) (UniProt P78362); conditions: Compound concentration 1000.0 nM
Chain of SRSF protein kinase 2 (Homo sapiens) (P78362 whole entry, looked up): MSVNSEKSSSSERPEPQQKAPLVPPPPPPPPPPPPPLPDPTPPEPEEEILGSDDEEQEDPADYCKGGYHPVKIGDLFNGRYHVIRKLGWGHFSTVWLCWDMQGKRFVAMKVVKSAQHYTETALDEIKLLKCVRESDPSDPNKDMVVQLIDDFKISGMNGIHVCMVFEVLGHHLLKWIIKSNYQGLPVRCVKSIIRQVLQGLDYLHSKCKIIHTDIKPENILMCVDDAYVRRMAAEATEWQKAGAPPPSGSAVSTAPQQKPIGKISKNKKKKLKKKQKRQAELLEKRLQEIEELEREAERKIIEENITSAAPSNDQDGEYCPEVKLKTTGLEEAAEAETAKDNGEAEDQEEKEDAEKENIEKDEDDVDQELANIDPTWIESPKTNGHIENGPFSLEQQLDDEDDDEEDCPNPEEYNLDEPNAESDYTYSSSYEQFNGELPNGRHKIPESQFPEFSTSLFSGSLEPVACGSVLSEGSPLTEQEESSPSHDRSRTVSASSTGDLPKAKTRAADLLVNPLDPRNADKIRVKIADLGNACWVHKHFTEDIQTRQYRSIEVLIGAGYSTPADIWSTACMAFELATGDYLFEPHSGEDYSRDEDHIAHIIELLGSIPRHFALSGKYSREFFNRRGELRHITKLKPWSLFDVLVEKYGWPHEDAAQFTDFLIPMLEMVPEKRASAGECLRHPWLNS

[6] = molecular target: Muscarinic acetylcholine receptor M1 (Homo sapiens) (UniProt P11229); conditions: Compound concentration 10.0 uM
Chain of Muscarinic acetylcholine receptor M1 (Homo sapiens) (P11229 whole entry): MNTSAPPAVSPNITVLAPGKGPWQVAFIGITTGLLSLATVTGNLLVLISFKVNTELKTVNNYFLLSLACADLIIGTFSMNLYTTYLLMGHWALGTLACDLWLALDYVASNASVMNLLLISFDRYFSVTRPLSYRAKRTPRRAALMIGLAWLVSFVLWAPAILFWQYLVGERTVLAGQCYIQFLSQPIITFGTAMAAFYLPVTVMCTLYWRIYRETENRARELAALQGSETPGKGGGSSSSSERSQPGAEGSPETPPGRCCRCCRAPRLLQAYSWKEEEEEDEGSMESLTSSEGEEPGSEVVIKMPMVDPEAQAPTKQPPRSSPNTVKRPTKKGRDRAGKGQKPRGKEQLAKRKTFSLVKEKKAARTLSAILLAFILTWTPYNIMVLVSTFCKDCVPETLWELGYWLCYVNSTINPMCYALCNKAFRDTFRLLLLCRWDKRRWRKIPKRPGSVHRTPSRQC

[7] = molecular target: Serine/threonine-protein kinase mTOR (Homo sapiens) (UniProt P42345); conditions: Compound concentration 1000.0 nM
[8] = molecular target: SRSF protein kinase 1 (Homo sapiens) (UniProt Q96SB4); conditions: Compound concentration 1000.0 nM
Chain of SRSF protein kinase 1 (Homo sapiens) (Q96SB4 whole entry): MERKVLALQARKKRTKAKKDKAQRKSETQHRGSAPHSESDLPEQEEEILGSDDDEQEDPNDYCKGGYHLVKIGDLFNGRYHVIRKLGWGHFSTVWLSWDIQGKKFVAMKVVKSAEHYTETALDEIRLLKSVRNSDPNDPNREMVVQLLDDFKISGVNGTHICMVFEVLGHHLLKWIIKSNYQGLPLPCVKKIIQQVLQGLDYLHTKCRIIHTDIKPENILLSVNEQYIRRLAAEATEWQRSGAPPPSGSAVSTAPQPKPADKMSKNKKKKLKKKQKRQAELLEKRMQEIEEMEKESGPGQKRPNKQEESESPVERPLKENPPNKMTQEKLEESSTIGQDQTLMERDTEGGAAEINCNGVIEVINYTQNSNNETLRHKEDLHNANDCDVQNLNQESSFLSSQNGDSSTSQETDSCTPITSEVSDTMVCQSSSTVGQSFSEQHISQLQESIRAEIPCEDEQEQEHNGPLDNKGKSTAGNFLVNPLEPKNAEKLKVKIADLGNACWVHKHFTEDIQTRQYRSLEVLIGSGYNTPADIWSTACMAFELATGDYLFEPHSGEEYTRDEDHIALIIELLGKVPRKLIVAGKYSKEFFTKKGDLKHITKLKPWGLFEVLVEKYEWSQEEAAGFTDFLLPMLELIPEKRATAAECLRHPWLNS

[9] = molecular target: Dual specificity testis-specific protein kinase 1 (Homo sapiens) (UniProt Q15569); conditions: Compound concentration 1000.0 nM
Chain of Dual specificity testis-specific protein kinase 1 (Homo sapiens) (Q15569 whole entry, looked up): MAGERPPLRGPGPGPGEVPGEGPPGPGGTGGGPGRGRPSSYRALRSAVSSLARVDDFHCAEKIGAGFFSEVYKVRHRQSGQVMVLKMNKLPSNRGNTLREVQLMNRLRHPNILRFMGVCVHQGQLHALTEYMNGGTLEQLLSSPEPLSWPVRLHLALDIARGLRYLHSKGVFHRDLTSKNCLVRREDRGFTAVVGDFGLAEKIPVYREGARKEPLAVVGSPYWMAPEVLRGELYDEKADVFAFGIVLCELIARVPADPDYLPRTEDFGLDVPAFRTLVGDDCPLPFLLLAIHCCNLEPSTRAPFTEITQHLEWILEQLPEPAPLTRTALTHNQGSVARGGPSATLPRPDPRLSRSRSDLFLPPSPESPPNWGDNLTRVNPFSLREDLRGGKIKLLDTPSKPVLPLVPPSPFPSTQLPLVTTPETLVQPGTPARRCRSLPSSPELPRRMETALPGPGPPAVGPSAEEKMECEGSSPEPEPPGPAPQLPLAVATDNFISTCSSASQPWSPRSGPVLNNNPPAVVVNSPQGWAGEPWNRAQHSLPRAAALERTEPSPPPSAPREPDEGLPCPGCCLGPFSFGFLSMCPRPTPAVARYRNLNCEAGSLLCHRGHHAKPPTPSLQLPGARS

[10] = molecular target: T1, Tyrosine-protein kinase ITK/TSK (Homo sapiens) (UniProt Q08881); conditions: Compound concentration 1000.0 nM
T1 sequence (whole entry): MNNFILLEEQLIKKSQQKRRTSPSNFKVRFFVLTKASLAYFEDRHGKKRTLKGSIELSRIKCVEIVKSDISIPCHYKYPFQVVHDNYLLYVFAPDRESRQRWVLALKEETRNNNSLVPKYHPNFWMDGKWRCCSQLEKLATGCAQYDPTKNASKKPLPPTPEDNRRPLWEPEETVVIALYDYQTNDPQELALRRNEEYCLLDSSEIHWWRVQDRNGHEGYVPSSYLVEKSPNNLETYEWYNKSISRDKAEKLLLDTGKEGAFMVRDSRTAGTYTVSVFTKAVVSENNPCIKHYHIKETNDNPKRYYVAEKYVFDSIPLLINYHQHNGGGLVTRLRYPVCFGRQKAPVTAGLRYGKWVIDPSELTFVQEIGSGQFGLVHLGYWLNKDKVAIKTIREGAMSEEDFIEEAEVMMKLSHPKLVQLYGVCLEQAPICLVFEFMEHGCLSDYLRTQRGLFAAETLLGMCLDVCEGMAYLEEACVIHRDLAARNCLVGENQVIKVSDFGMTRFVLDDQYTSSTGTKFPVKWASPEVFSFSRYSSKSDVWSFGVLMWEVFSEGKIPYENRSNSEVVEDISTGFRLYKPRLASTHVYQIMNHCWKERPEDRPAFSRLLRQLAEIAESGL

[11] = molecular target: Focal adhesion kinase 1 (Homo sapiens) (UniProt Q05397); conditions: Compound concentration 1000.0 nM
[12] = molecular target: D(3) dopamine receptor (Homo sapiens) (UniProt P35462); conditions: Compound concentration 10.0 uM
Chain of D(3) dopamine receptor (Homo sapiens) (P35462 whole entry): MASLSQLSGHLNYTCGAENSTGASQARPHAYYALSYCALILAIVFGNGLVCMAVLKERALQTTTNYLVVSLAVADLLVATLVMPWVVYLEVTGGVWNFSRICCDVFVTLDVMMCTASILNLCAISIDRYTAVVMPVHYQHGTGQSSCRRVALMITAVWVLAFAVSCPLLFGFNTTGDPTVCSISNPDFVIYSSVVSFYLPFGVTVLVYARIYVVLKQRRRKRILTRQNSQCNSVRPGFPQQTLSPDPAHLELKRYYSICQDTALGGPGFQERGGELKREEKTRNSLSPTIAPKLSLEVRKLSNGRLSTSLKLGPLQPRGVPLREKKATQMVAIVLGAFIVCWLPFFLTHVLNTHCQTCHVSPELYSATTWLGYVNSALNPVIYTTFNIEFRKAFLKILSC

[13] = molecular target: RAC-beta serine/threonine-protein kinase (Homo sapiens) (UniProt P31751); conditions: Compound concentration 1000.0 nM
Chain of RAC-beta serine/threonine-protein kinase (Homo sapiens) (P31751 whole entry): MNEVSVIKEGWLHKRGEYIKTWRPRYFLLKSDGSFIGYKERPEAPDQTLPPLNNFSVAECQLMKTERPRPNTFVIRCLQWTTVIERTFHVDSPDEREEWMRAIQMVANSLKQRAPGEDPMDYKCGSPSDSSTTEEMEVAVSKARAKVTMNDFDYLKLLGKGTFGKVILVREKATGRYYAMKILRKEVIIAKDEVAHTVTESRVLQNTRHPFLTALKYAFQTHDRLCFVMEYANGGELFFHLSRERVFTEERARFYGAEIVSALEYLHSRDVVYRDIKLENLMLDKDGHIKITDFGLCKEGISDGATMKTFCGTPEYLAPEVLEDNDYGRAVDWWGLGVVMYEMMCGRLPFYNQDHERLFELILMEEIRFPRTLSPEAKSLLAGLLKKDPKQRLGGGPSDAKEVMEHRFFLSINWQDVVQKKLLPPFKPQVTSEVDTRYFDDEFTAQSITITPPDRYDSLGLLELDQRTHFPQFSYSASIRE

[14] = molecular target: Phosphatidylinositol 4-phosphate 5-kinase type-1 alpha (Homo sapiens) (UniProt Q99755); conditions: Compound concentration 1000.0 nM
Chain of Phosphatidylinositol 4-phosphate 5-kinase type-1 alpha (Homo sapiens) (Q99755 whole entry): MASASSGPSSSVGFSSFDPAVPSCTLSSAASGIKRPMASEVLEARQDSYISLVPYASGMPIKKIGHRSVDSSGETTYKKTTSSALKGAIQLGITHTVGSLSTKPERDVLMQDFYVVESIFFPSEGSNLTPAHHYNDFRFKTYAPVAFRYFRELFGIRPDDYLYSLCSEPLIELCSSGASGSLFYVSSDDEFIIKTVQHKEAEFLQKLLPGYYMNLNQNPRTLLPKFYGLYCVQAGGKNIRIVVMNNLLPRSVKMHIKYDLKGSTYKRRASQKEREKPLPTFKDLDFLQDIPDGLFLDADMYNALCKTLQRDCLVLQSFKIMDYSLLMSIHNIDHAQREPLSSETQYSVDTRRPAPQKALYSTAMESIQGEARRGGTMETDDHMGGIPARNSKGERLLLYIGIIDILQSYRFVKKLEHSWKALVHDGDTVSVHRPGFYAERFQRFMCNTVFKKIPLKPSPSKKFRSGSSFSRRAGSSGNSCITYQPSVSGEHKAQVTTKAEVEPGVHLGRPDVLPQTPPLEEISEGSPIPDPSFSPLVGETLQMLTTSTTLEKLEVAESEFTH

[15] = molecular target: Mu-type opioid receptor (Homo sapiens) (UniProt P35372); conditions: Compound concentration 10.0 uM
[16] = molecular target: T2, Dual specificity mitogen-activated protein kinase kinase 7 (Homo sapiens) (UniProt O14733); conditions: Compound concentration 1000.0 nM
T2 sequence (whole entry): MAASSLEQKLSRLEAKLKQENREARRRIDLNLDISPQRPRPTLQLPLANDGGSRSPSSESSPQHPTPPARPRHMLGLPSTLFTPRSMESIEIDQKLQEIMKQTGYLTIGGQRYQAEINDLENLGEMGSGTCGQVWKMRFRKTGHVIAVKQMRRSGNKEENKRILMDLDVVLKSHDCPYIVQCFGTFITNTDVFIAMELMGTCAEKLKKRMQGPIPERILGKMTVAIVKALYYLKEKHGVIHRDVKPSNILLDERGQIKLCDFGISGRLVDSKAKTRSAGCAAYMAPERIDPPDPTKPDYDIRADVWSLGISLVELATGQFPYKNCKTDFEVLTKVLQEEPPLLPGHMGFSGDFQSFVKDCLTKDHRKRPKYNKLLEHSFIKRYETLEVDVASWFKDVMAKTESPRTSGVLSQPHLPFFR

[17] = molecular target: Dual specificity protein kinase CLK2 (Homo sapiens) (UniProt P49760); conditions: Compound concentration 1000.0 nM
[18] = system: Proto-oncogene tyrosine-protein kinase receptor Ret (Homo sapiens), P07949 [M918T]; conditions: Compound concentration 1000.0 nM

Chain of Serine/threonine-protein kinase NIM1 (Homo sapiens) (Q8IY84 whole entry): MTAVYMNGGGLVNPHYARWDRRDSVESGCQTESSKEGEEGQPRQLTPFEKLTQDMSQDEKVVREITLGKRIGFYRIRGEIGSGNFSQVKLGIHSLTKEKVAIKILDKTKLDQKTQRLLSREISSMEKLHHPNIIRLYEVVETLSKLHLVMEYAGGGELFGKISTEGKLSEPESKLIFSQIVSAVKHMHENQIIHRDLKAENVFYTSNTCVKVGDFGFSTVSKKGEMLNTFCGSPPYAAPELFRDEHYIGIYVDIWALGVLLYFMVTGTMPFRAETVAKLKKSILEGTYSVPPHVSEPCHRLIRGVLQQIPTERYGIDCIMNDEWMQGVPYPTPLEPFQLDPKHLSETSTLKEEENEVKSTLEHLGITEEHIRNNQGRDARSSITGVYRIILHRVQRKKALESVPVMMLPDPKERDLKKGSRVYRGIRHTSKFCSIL

CC1=C(C#N)C(c2ccc3c(c2)c(NC(=O)c2ccccc2C)nn3C)C(C#N)=C(C)N1 [BAY-974]
inactive: residual activity [1] 96% | residual activity [2] 86% | residual activity [3] 90% | residual activity [4] 100% | residual activity [5] 88% | inhibition [6] -1.37% | residual activity [7] 75% | residual activity [8] 89% | residual activity [9] 96% | residual activity [10] 97% | residual activity [11] 94% | inhibition [12] 2.48% | residual activity [13] 100% | residual activity [14] 100% | inhibition [15] 13.7% | residual activity [16] 65% | residual activity [17] 75% | residual activity [18] 100%

CCc1ccccc1C(=O)Nc1n[nH]c2c(C)c(F)c(C3C(C#N)=C(C)N(C)C(C)=C3C#N)cc12 [BAY-3827]
inactive: residual activity [1] 92% | residual activity [2] 100% | residual activity [3] 100% | residual activity [4] 79% | residual activity [5] 100% | inhibition [6] 2.81% | residual activity [7] 100% | residual activity [8] 89% | residual activity [9] 96% | residual activity [10] 86% | residual activity [11] 82% | inhibition [12] 10.4% | residual activity [13] 95% | residual activity [14] 100% | inhibition [15] 30.5% | residual activity [16] 100% | residual activity [17] 55% | residual activity [18] 64%

Reference: ChEMBL document CHEMBL4507319 (2021)
